Experimental data: patent publication US20100003228A1, “T-CELL VACCINE” (priority 2006, published 2010)

Tests used:
Format in all cases: cell-based, human
[1] = tested on: myelin reactive T cells in PBMCs; experiment: Epitope Analysis Assay (EAA): PBMC stimulation with myelin peptide mixes, tritiated thymidine incorporation, SI of at least 3 positive; conditions: for subjects tested that were reactive: all 54 subjects tested
Experimental: The SI may be calculated by comparing [^3H] thymidine incorporation of the sample in the presence of a peptide comprising a portion of an MRTC polypeptide target to that in the presence of a media only control. Briefly, separate aliquots of the sample are plated and incubated in the presence of either a peptide comprising a portion of the polypeptide or a media only control in order to stimulate reactive T cells. The cultures are pulsed with [^3H] thymidine during the last 6-18 hours of incubation. The SI is calculated as the quotient of the mean counts per minute (cpm) of the antigen aliquots/mean cpm of the control aliquots. The SI of autoreactive T cells may be increased by at least a factor of 1.3, 1.4, 1.5, 1.6, 1.7, 1.8, 1.9, 2.0, 2.1, 2.2, 2.3, 2.4, 2.5, 2.6, 2.7. 2.8, 2.9, 3.0, 3.1, 3.2, 3.3, 3.4, 3.5, 3.6, 3.7, 3.8, 3.9, or 4.0 compared to a control.
The peptides in Example 2 were tested in an in vitro PBMC stimulation assay to identify myelin reactive T cells in a patient's blood. Peripheral blood mononuclear cells (PBMCs) were separated from whole blood, washed, counted and plated at 250,000 cells per well in a total of four 96-well plates. Myelin peptide mixes of two overlapping 16-mer peptides were added to triplicate wells of PBMCs with triplicate media only control wells included on each plate and then incubated. After two days of incubation, 20 U/ml of interleukin-2 (IL-2) was added. On the fifth day, the plates were labeled with a radioisotope (tritiated thymidine) and harvested 6 hours later. In this assay, the cells that incorporate tritiated thymidine are representative of T cells being activated and induced to proliferate by the T cell receptor-peptide-MHC complexes. T cells incorporating comparatively more tritiated thymidine than control and experimental cells are more highly activated T cells and are proliferating more rapidly.
Stimulation Indices (SI) were determined for each peptide mix by dividing the mean radiolabel counts per minute (CPM) of the peptide stimulated wells by the mean CPM of the media only control wells averaged across all four plates. An SI of at least 3 was considered positive. FIG. 1 is an example of EAA from one MS patient. Seven of the peptide mixtures were slightly reactive, with the MOGm15 stimulated wells being very reactive. FIGS. 2-4 show the frequency of reactivity to the peptide mixes in 48 patients.

[2] = tested on: myelin reactive T cells in PBMCs; experiment: EAA with positivity by Variance Evaluation Method or CPM Variance Method (clinical trials); conditions: clinical trial population, RR-MS or CIS subjects
Source text: The predetermined value may also be calculated using a Variance Evaluation Method as follows: • 1. EAAs may be run on a given patient population (minimum of 120 assays from 120 unique subjects) • 2. A “negative population” may be created by averaging all SI values<2.5 • 3. The Standard Deviation (SD) may be calculated for each peptide • 4. The following for each peptide may be then be calculated: • a. Average+1SD • b. Average+2SD • c. Average+3SD • 5. The following SIs may be considered above the predetermined value: • a. SI greater than or equal to the average+3SD • b. Any SI greater than or equal to 2.5
The predetermined value may also be evaluated using a Counts per Minute (CPM) Variance Method. This algorithm may set a comprehensive cutoff for all peptides within a given assay. It may be calculated as follows: • 1. EAAs may be run and the CPM for all control (media only, no antigen) wells averaged. • 2. The SD for CPM of the control wells may then be calculated. • 3. The following may then be calculated for the control wells: • a. Average+1SD • b. Average+2SD • c. Average+3SD • 4. Any peptide with an average CPM greater than or equal to the average+3SD of the control wells may be considered above the predetermined value.
Any peptide, either analyzed in an individual well or as averaged over wells run in triplicate, with an SI≧2.5, an SI≧average+3SD by the Variance Evaluation Method, or an SI≧average+3SD by the CPM variance method may be considered above the predetermined value, which may indicate a T cell(s) positive for reactivity to a peptide.
The peptides of Example 3 have been tested in 429 EAAs in clinical trials as follows. […] Pre-Vaccine EAAs have 158 positive out of 387 assays (40.8%), with Relapse Remitting MS patients (RRMS) showing 150 positive of 368 assays (40.8%), and Clinically Isolated Syndrome (CIS) patients showing 8 positive of 19 assays (42.1%).
Over the course of 6 months a study was conducted with 120 subjects meeting the criteria for the clinical trial.
The above mentioned population of subjects was evaluated by EAA using the Variance Evaluation Method and CPM Variance Method as described above, and deemed eligible for vaccine production. Of the 120 attempts to manufacture vaccine, there were 2 shipping failures (blood was not received within our stated criteria), 1 culture was lost to contamination and 5 samples arrived with low cell volume/yield. Of the remaining 112 subjects, vaccine was successfully generated in 89 subjects, with 22 still in production (98.9% of eligible samples, 92.5% of all samples completed). From this, a positive EAA was deemed predictive of the ability to manufacture a vaccine to therapeutic dose by methods disclosed herein.

[3] = tested on: T cell receptor variable beta chain usage (Vβ); experiment: TCR V beta analysis of peptide-stimulated T cell line by flow cytometry; conditions: Day 9 to Day 16 in culture, FIG. 10
Experimental: Enrichment of T cell subsets was evaluated by analyzing the T cell receptor variable beta chain usage (Vβ). The 24 different known beta chain variable (Vβ) region families were evaluated using specific fluorescent-labeled monoclonal antibodies and flow cytometry. If a particular subset of T cells is selectively expanded by stimulation with a peptide, an increase would be detected in the percentage of cells expressing one of the V beta families as that subset expands.
[…] A T cell line was produced by stimulating the patient's PBMCs with peptide mix MBPm10, which had produced an SI of 4.6 in the original EAA for this patient. […] This mix was used to stimulate PBMCs from this patient in culture.

[4] = tested on: PBMCs / T cells; experiment: Growth analysis of T cell lines stimulated with EAA-selected peptide mixes; conditions: from 15 million PBMCs, in 20 days, 3 stimulations
Experimental: Patient-specific peptides identified by EAA were tested to determine whether they could be used to produce and expand myelin-reactive T-cells for use in a vaccine. A 500 ml bag of blood was obtained from the patient to set up vaccine production cultures. Bulk cultures were set up in AIM V medium along with the optimized peptides. After 48 hours of incubation, rIL-2 was added at 20 U/ml. Seven days later, the cultures were re-stimulated with PBMCs and peptide. The media was changed to 2% AB serum with 100 U/ml rIL2 in X Vivo 15 medium. The cultures were fed and split every 1-4 days as necessary. After an additional seven days, the cultures were once again stimulated with APCs and peptides. The cultures were continued to be fed and split every 1-4 days as necessary. After an additional 7-14 days, the cultures had expanded to at least 100×10^6 cells. The cells were divided into aliquots of 10×10^6 cells and frozen.
The ability of stimulation with the EAA-selected peptides to more rapidly expand the stimulated the T cells were tested. The cell growth curves were analyzed for two different stimulatory peptide mixes. The EAA CPM data shown in FIG. 8 show a strongly reactive mix in MBPm19 for a patient with an SI of 4.7. […] These two peptides mixes were then used to stimulate PBMCs from this patient to produce T cell lines. […]

Row | Substance | subjects tested that were reactive [1] | # of Subjects (frequency of identification) [2] | % of Subjects (frequency of identification) [2] [%] | other results
1 | MBP 151-170: immunodominant peptide of MBP used to prepare vaccines in Example 1 (TASTMDHARHGFLPRHRDTG; UniProt P02686 151-170, looked up, fragment) | Forty-one percent |  |  | 
2 | PLPm27: mix of PLP 53 and PLP 54 (chain 1 VLPWNAFPGKVCGSNL; chain 2 NAFPGKVCGSNLLSIC) |  | 6 | 5.0 | TCR V beta focusing [3]: V beta chain 5-5 is expanding
3 | PLPm33: mix of PLP 65 and PLP 66 (chain 1 FMIAATYNFAVLKLMG; chain 2 ATYNFAVLKLMGRGTK) |  | 11 | 9.2 | Stimulation Index (SI) ([1]; patient of Example 8, FIG. 8): 17.9; T cells after expansion [4]: 200 million T cells
4 | PLP 180-199: PLP immunodominant peptide used to prepare vaccines in Example 1 (TWTTCQSIAFPSKTSASIGS; UniProt P60201 180-199, looked up, fragment) | 31% |  |  | 
5 | PLP 30-49: PLP immunodominant peptide used to prepare vaccines in Example 1 (ALFCGCGHEALTGTEKLIET; UniProt P60201 30-49, looked up, fragment) | 31% |  |  | 
